Results: patent US20120029187A1, “HALOALKYLSULFONANILIDE DERIVATIVE” (Nissan Chemical Industries, Ltd., priority 2009, published 2012)

Tests used:
Type in all cases: in vivo
[1] = test system: barnyardgrass; experiment: Test Example 3: herbicidal effects in soil treatment; conditions: dose 6.3 g/a
How it was run: (§1)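 Seeds were sown in sterilized diluvial soil and covered with about 1.5 cm of soil. Compounds, formulated as emulsifiable concentrates and diluted with water, were sprayed evenly over the soil surface at set doses in g/a. Herbicidal effect was scored on a rating scale three weeks later.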

[2] = test system: posumbu knotweed; experiment: as above; conditions: dose 6.3 g/a
How it was run: as §1

[3] = test system: wild oat; experiment: as above; conditions: dose 6.3 g/a
How it was run: as §1

[4] = test system: common lambsquater; experiment: as above; conditions: dose 6.3 g/a
How it was run: as §1

[5] = test system: velvetleaf; experiment: as above; conditions: dose 6.3 g/a
How it was run: as §1

[6] = test system: giant foxtail; experiment: as above; conditions: dose 6.3 g/a
How it was run: as §1

[7] = test system: redroot pigweed; experiment: as above; conditions: dose 6.3 g/a
How it was run: as §1

[8] = test system: common ragweed; experiment: as above; conditions: dose 6.3 g/a
How it was run: as §1

[9] = test system: large crabgrass; experiment: as above; conditions: dose 6.3 g/a
How it was run: as §1

[10] = test system: common chickweed; experiment: as above; conditions: dose 6.3 g/a
How it was run: as §1

[11] = test system: Italian ryegrass; experiment: as above; conditions: dose 6.3 g/a
How it was run: as §1

[12] = test system: water foxtail; experiment: as above; conditions: dose 6.3 g/a
How it was run: as §1

[13] = test system: barnyardgrass; experiment: Test Example 2: herbicidal effects during the vegetation period under submerged conditions; conditions: treatment during the vegetation period under submerged conditions; dose 2.52 g/a
How it was run: (§2)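 Barnyardgrass, bulrush and ducksalad were co-sown in alluvial soil flooded to 4 cm and grown in a greenhouse at 25 to 30° C. At the 1- or 2-leaf stage, water-diluted emulsifiable concentrates went onto the water surface at set doses (g/a). Herbicidal effect was scored three weeks later on a graded scale.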

[14] = test system: ducksalad; experiment: as above; conditions: treatment during the vegetation period under submerged conditions; dose 2.52 g/a
How it was run: as §2

[15] = test system: bulrush; experiment: as above; conditions: treatment during the vegetation period under submerged conditions; dose 2.52 g/a
How it was run: as §2

[16] = test system: barnyardgrass; experiment: Test Example 1: herbicidal effects in preemergence treatment under submerged conditions; conditions: dose 2.52 g/a
How it was run: (§3)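 Score 0–5 by mortality (5: ≥90%; 0: <5%), read 3 weeks post-application. Paddy-type cups: alluvial soil under 4 cm water, weeds seeded plus transplanted 2.5-leaf rice; diluted EC dosed onto water surface same day as sowing, g/a basis; greenhouse 25 to 30° C.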

[17] = test system: ducksalad; experiment: as above; conditions: dose 2.52 g/a
How it was run: as §3

[18] = test system: bulrush; experiment: as above; conditions: dose 2.52 g/a
How it was run: as §3

[19] = test system: transplanted rice; experiment: Test Example 1: preemergence treatment under submerged conditions, effect on crop; conditions: dose 2.52 g/a
How it was run: as §3

[20] = test system: barnyardgrass; experiment: Test Example 4: herbicidal effect in foliage treatment; conditions: dose 6.3 g/a, three weeks after application
How it was run: (§4)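 Seeds were spot-sown in boxes of sterilized diluvial soil and raised in a greenhouse (25 to 30° C) for 14 days before a single foliar application. Compounds were applied as emulsifiable concentrates diluted with water, at predetermined doses in g/a. Injury was graded three weeks post-spray.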

[21] = test system: posumbu knotweed; experiment: as above; conditions: dose 6.3 g/a, three weeks after application
How it was run: as §4

[22] = test system: wild oat; experiment: as above; conditions: dose 6.3 g/a, three weeks after application
How it was run: as §4

[23] = test system: common lambsquater; experiment: as above; conditions: dose 6.3 g/a, three weeks after application
How it was run: as §4

[24] = test system: velvetleaf; experiment: as above; conditions: dose 6.3 g/a, three weeks after application
How it was run: as §4

[25] = test system: giant foxtail; experiment: as above; conditions: dose 6.3 g/a, three weeks after application
How it was run: as §4

[26] = test system: redroot pigweed; experiment: as above; conditions: dose 6.3 g/a, three weeks after application
How it was run: as §4

[27] = test system: common ragweed; experiment: as above; conditions: dose 6.3 g/a, three weeks after application
How it was run: as §4

[28] = test system: large crabgrass; experiment: as above; conditions: dose 6.3 g/a, three weeks after application
How it was run: as §4

[29] = test system: common chickweed; experiment: as above; conditions: dose 6.3 g/a, three weeks after application
How it was run: as §4

[30] = test system: beadstraw; experiment: as above; conditions: dose 6.3 g/a, three weeks after application
How it was run: as §4

[31] = test system: Italian ryegrass; experiment: as above; conditions: dose 6.3 g/a, three weeks after application
How it was run: as §4

[32] = test system: water foxtail; experiment: as above; conditions: dose 6.3 g/a, three weeks after application
How it was run: as §4

Structure (SMILES) | A: barnyardgrass, herbicidal effect (evaluation scale 0-5) [1] | M: posumbu knotweed, herbicidal effect (evaluation scale 0-5) [2] | F: wild oat, herbicidal effect (evaluation scale 0-5) [3] | L: common lambsquater, herbicidal effect (evaluation scale 0-5) [4] | I: velvetleaf, herbicidal effect (evaluation scale 0-5) [5] | E: giant foxtail, herbicidal effect (evaluation scale 0-5) [6] | K: redroot pigweed, herbicidal effect (evaluation scale 0-5) [7] | J: common ragweed, herbicidal effect (evaluation scale 0-5) [8] | D: large crabgrass, herbicidal effect (evaluation scale 0-5) [9] | N: common chickweed, herbicidal effect (evaluation scale 0-5) [10] | H: Italian ryegrass, herbicidal effect (evaluation scale 0-5) [11] | G: water foxtail, herbicidal effect (evaluation scale 0-5) [12] | A: barnyardgrass, herbicidal effect (evaluation scale 0-5) [13] | C: ducksalad, herbicidal effect (evaluation scale 0-5) [14] | B: bulrush, herbicidal effect (evaluation scale 0-5) [15] | A: barnyardgrass, herbicidal effect (evaluation scale 0-5) [16] | C: ducksalad, herbicidal effect (evaluation scale 0-5) [17] | B: bulrush, herbicidal effect (evaluation scale 0-5) [18] | a: transplanted rice, effect on crop (evaluation scale 0-5) [19] | A: barnyardgrass, herbicidal effect [20] | further results
CCOC(=O)N(c1ccccc1CN1CCS(=O)(=O)CC1=O)S(=O)(=O)C(F)(F)F [Compound I-19, 4-[2-(N-ethoxycarbonyl-N-trifluoromethanesulfonyl)aminobenzyl]-1,4-thiazinan-1,1-dioxide-3-one] | 4 (mortality of at least 70% and less than 90%) | 4 (mortality of at least 70% and less than 90%) | 0 (mortality of less than 5% (almost ineffective)) | 5 (mortality of 90% or above (nearly complete death)) | 2 (mortality of at least 20% and less than 40%) | 4 (mortality of at least 70% and less than 90%) | 4 (mortality of at least 70% and less than 90%) | 4 (mortality of at least 70% and less than 90%) | 4 (mortality of at least 70% and less than 90%) | 5 (mortality of 90% or above (nearly complete death)) | 2 (mortality of at least 20% and less than 40%) | 5 (mortality of 90% or above (nearly complete death)) | 3 (mortality of at least 40% and less than 70%) | 4 (mortality of at least 70% and less than 90%) | 5 (mortality of 90% or above (nearly complete death)) | 5 (mortality of 90% or above (nearly complete death)) | 5 (mortality of 90% or above (nearly complete death)) | 5 (mortality of 90% or above (nearly complete death)) | 0 (mortality of less than 5% (almost ineffective)) | 4 (mortality of at least 70% and less than 90%) | M: posumbu knotweed, herbicidal effect [21]: 3 (mortality of at least 40% and less than 70%); F: wild oat, herbicidal effect [22]: 0 (mortality of less than 5% (almost ineffective)); L: common lambsquater, herbicidal effect [23]: 4 (mortality of at least 70% and less than 90%); I: velvetleaf, herbicidal effect [24]: 3 (mortality of at least 40% and less than 70%); E: giant foxtail, herbicidal effect [25]: 4 (mortality of at least 70% and less than 90%); K: redroot pigweed, herbicidal effect [26]: 4 (mortality of at least 70% and less than 90%); J: common ragweed, herbicidal effect [27]: 4 (mortality of at least 70% and less than 90%); D: large crabgrass, herbicidal effect [28]: 4 (mortality of at least 70% and less than 90%); N: common chickweed, herbicidal effect [29]: 4 (mortality of at least 70% and less than 90%); O: beadstraw, herbicidal effect [30]: 4 (mortality of at least 70% and less than 90%); H: Italian ryegrass, herbicidal effect [31]: 3 (mortality of at least 40% and less than 70%); G: water foxtail, herbicidal effect [32]: 5 (mortality of 90% or above (nearly complete death))
O=C1CCOCN1Cc1ccccc1NS(=O)(=O)C(F)(F)F [II-1] | 5 (mortality of 90% or above (nearly complete death)) | 1 (mortality of at least 5% and less than 20%) | 0 (mortality of less than 5% (almost ineffective)) | 5 (mortality of 90% or above (nearly complete death)) | 5 (mortality of 90% or above (nearly complete death)) | 5 (mortality of 90% or above (nearly complete death)) | 1 (mortality of at least 5% and less than 20%) | 5 (mortality of 90% or above (nearly complete death)) | 5 (mortality of 90% or above (nearly complete death)) | 5 (mortality of 90% or above (nearly complete death)) | 3 (mortality of at least 40% and less than 70%) | 5 (mortality of 90% or above (nearly complete death)) | 5 (mortality of 90% or above (nearly complete death)) | 5 (mortality of 90% or above (nearly complete death)) | 5 (mortality of 90% or above (nearly complete death)) | 5 (mortality of 90% or above (nearly complete death)) | 5 (mortality of 90% or above (nearly complete death)) | 5 (mortality of 90% or above (nearly complete death)) | 3 (mortality of at least 40% and less than 70%) | 5 (mortality of 90% or above (nearly complete death)) | M: posumbu knotweed, herbicidal effect [21]: 0 (mortality of less than 5% (almost ineffective)); F: wild oat, herbicidal effect [22]: 1 (mortality of at least 5% and less than 20%); L: common lambsquater, herbicidal effect [23]: 4 (mortality of at least 70% and less than 90%); I: velvetleaf, herbicidal effect [24]: 5 (mortality of 90% or above (nearly complete death)); E: giant foxtail, herbicidal effect [25]: 5 (mortality of 90% or above (nearly complete death)); K: redroot pigweed, herbicidal effect [26]: 0 (mortality of less than 5% (almost ineffective)); J: common ragweed, herbicidal effect [27]: 4 (mortality of at least 70% and less than 90%); D: large crabgrass, herbicidal effect [28]: 5 (mortality of 90% or above (nearly complete death)); N: common chickweed, herbicidal effect [29]: 4 (mortality of at least 70% and less than 90%); O: beadstraw, herbicidal effect [30]: 4 (mortality of at least 70% and less than 90%); H: Italian ryegrass, herbicidal effect [31]: 4 (mortality of at least 70% and less than 90%); G: water foxtail, herbicidal effect [32]: 5 (mortality of 90% or above (nearly complete death))
